In ChEMBL document CHEMBL6153028, “Understanding the synergistic sensitization of natural products and antibiotics: An effective strategy to combat MRSA” (2025):

Legend:
Format in all cases: functional
[1] = tested on: Staphylococcus aureus; assay: Synergistic antimicrobial activity against methicillin resistant Staphylococcus aureus 43300 assessed as fractional inhibitory concentration index incubated for 24 hrs in presence of norfloxacin by checkerboard assay
[2] = tested on: Staphylococcus aureus; assay: Synergistic antimicrobial activity against methicillin-resistant Staphylococcus aureus assessed as fractional inhibitory concentration index in presence of gentamicin by checkerboard assay
[3] = tested on: Staphylococcus aureus; assay: Synergistic antimicrobial activity against methicillin resistant Staphylococcus aureus assessed as fractional inhibitory concentration index incubated for 24 hrs in presence of Oxacillin by checkerboard assay
[4] = tested on: Staphylococcus aureus; assay: Synergistic antibacterial activity against Staphylococcus aureus assessed as fractional inhibitory concentration index incubated for 24 hrs in presence of ampicillin by checkerboard assay
[5] = tested on: Staphylococcus aureus; assay: Synergistic antimicrobial activity against methicillin resistant Staphylococcus aureus assessed as fractional inhibitory concentration index incubated for 24 hrs in presence of Norfloxacin by checkerboard assay
[6] = tested on: Staphylococcus aureus; assay: Synergistic antimicrobial activity against methicillin resistant Staphylococcus aureus 43300 assessed as fractional inhibitory concentration index incubated for 24 hrs in presence of Vancomycin by checkerboard assay
[7] = tested on: Staphylococcus aureus; assay: Synergistic antimicrobial activity against methicillin resistant Staphylococcus aureus 43300 assessed as fractional inhibitory concentration index incubated for 24 hrs in presence of Penicillin by checkerboard assay
[8] = tested on: Staphylococcus aureus; assay: Synergistic antibacterial activity against methicillin-resistant Staphylococcus aureus assessed as fractional inhibitory concentration index incubated for 24 hrs in presence of ampicillin by checkerboard assay
[9] = tested on: Staphylococcus aureus; assay: Synergistic antibacterial activity against methicillin-resistant Staphylococcus aureus 4806 assessed as fractional inhibitory concentration index incubated for 24 hrs in presence of ampicillin by checkerboard assay
[10] = tested on: Staphylococcus aureus; assay: Synergistic antibacterial activity against methicillin-resistant Staphylococcus aureus assessed as fractional inhibitory concentration index incubated for 24 hrs in presence of cefazolin by checkerboard assay
[11] = tested on: Staphylococcus aureus; assay: Synergistic antibacterial activity against methicillin resistant Staphylococcus aureus assessed as fractional inhibitory concentration index in presence of oxacillin incubated for 24 hrs by checkerboard assay
[12] = tested on: Staphylococcus aureus; assay: Synergistic antibacterial activity against methicillin resistant Staphylococcus aureus assessed as fractional inhibitory concentration index in presence of kanamycin incubated for 24 hrs by checkerboard assay
[13] = tested on: Staphylococcus aureus; assay: Synergistic antibacterial activity against methicillin-resistant Staphylococcus aureus assessed as fractional inhibitory concentration index incubated for 24 hrs in presence of fusidic acid by checkerboard assay
[14] = tested on: Staphylococcus aureus; assay: Synergistic antibacterial activity against methicillin resistant Staphylococcus aureus assessed as fractional inhibitory concentration index incubated for 24 hrs in presence of levofloxacin by broth microdilution checkboard assay
[15] = tested on: Staphylococcus aureus; assay: Synergistic antibacterial activity against methicillin-resistant Staphylococcus aureus assessed as fractional inhibitory concentration index in presence of azithromycin
[16] = tested on: Staphylococcus aureus; assay: Synergistic antimicrobial activity against methicillin-resistant Staphylococcus aureus assessed as fractional inhibitory concentration index in presence of vancomycin by checkerboard assay
[17] = tested on: Staphylococcus aureus; assay: Synergistic antimicrobial activity against methicillin-resistant Staphylococcus aureus assessed as fractional inhibitory concentration index in presence of gentamicin incubated for 24 hrs by checkerboard assay

COc1cc2c(cc1O)CC[n+]1cc3c(OC)c(OC)ccc3cc1-2.[I-]
fractional inhibitory concentration index (FICI) [1]: 0.375

COc1cc(C)c2c(c1C)OC(=O)c1c(C)c(Cl)c(O)c(C=O)c1O2
fractional inhibitory concentration index (FICI) [2]: 0.25 | fractional inhibitory concentration index (FICI) [3]: 0.312

COc1ccc2c(c1OC)C(CC(C)=O)N(C)c1c-2ccc2cc3c(cc12)OCO3 (stereo not drawn)
fractional inhibitory concentration index (FICI) [4]: 0.5

CC1=CCC[C@@H]2[C@@](C)(C[C@H](O)C3=CC(=O)OC3O)[C@H](C)CC[C@@]12C (stereo partly drawn)
fractional inhibitory concentration index (FICI) [3]: 0.125

C[C@@H]1O[C@@H](O[C@H]2[C@H](O[C@H]3CC[C@]4(C)[C@H]5CC=C6[C@@H]7CC(C)(C)CC[C@]7(C(=O)O)CC[C@@]6(C)[C@]5(C)CC[C@H]4C3(C)C)OC[C@H](O)[C@@H]2O)[C@H](O)[C@H](O)[C@H]1O
fractional inhibitory concentration index (FICI) [3]: 0.28

O=C(OCC1O[C@H](OC(=O)c2cc(O)c(O)c(O)c2)[C@@H](O)[C@H](OC(=O)c2cc(O)c(O)c(O)c2)[C@H]1O)c1cc(O)c(O)c(O)c1 (stereo partly drawn)
fractional inhibitory concentration index (FICI) [5]: 0.31 | fractional inhibitory concentration index (FICI) [3]: <0.5

C[C@H]1C2CCC3[C@@H]4CC=C5CC(N(C)C)CC[C@]5(C)[C@H]4CC[C@@]32CN1C=O (stereo partly drawn)
fractional inhibitory concentration index (FICI) [6]: 0.502 | fractional inhibitory concentration index (FICI) [7]: 0.116

CC1=C(C)[C@H]2C3=CC[C@@H]4[C@@]5(C)CC[C@H](O)C(C)(C)[C@@H]5CC[C@@]4(C)[C@]3(C)CC[C@@]2(C(=O)O)CC1
fractional inhibitory concentration index (FICI) [4]: 0.5 | fractional inhibitory concentration index (FICI) [3]: 0.38

COc1c(O)ccc2c1C(CC(C)=O)N(C)c1c-2ccc2cc3c(cc12)OCO3 (stereo not drawn)
fractional inhibitory concentration index (FICI) [8]: 0.5 | fractional inhibitory concentration index (FICI) [4]: 0.5 | fractional inhibitory concentration index (FICI) [9]: 0.375

COc1ccc2cc1Oc1ccc(cc1)C[C@H]1c3cc(c(OC)cc3CCN1C)Oc1c(O)c(OC)cc3c1[C@H]2N(C)CC3
fractional inhibitory concentration index (FICI) [10]: 0.25

COc1ccc2cc1Oc1ccc(cc1)C[C@H]1c3cc(c(OC)cc3CCN1C)Oc1c(OC)c(OC)cc3c1[C@H]2N(C)CC3
fractional inhibitory concentration index (FICI) [10]: 0.188

CNC1CC[C@@]2(C)C(=CC[C@H]3C4CCC5[C@H](C)NC[C@@]54CC[C@@H]32)C1 (stereo partly drawn)
fractional inhibitory concentration index (FICI) [6]: 0.116 | FIC [7]: 0.116

CC(C)=CCc1c(O)ccc(-c2oc3cc(O)cc(O)c3c(=O)c2CC=C(C)C)c1O
fractional inhibitory concentration index (FICI) [11]: 0.375 | fractional inhibitory concentration index (FICI) [12]: 0.5

C[C@H]1[C@H](OC(=O)CCC(=O)O)O[C@@H]2O[C@@]3(C)CC[C@H]4[C@H](C)CC[C@@H]1[C@@]24OO3 [ARTESUNATE]
fractional inhibitory concentration index (FICI) [3]: <0.5

COc1ccc2cc3[n+](cc2c1OC)CCc1cc2c(cc1-3)OCO2.[Cl-] [BERBERINE CHLORIDE]
fractional inhibitory concentration index (FICI) [13]: 0.19 | fractional inhibitory concentration index (FICI) [14]: 0.375 | fractional inhibitory concentration index (FICI) [15]: 0.188

C=C(C)[C@@H]1CC[C@]2(C=O)CC[C@]3(C)[C@H](CC[C@@H]4[C@@]5(C)CC[C@H](O)C(C)(C)[C@@H]5CC[C@]43C)[C@@H]12 [BETULINALDEHYDE]
fractional inhibitory concentration index (FICI) [16]: 0.5

C=C(C)[C@@H]1CC[C@]2(C(=O)O)CC[C@]3(C)[C@H](CC[C@@H]4[C@@]5(C)CC[C@H](O)C(C)(C)[C@@H]5CC[C@]43C)[C@@H]12 [BETULINIC ACID]
fractional inhibitory concentration index (FICI) [16]: 0.5

CC(C)c1cc2c(c(O)c1O)[C@@]1(C(=O)O)CCCC(C)(C)[C@@H]1CC2 [CARNOSIC ACID]
fractional inhibitory concentration index (FICI) [17]: 0.5
